Among the test systems are SK-MEL-5 melanoma; COLO 205 colon; SF-539 CNS; NCI-H226 lung; M14 melanoma; K-562 leukemia; SK-OV-3 ovarian; HT29 colon; HOP-62 NSCLC; MDA-MB-231 breast.
What all share (test): growth of human tumour cells (NCI), 48 h

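Interpolation was linear, between the two tested concentrations surrounding the appropriate level; five concentrations were tested over 48 hours in 96-well plates. GI50 marks 50% less growth. TGI marks complete inhibition of growth.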

Turning to `COc1ccc2nc3cc(Cl)ccc3c(NCCC(=O)OCC(O)C(O)C(O[C@H](C)C(=O)NC(C)C(=O)NC(CCC(N)=O)C(=O)OCc3ccccc3)C(C=O)NC(C)=O)c2c1` (some centres undefined), the TGI with SK-MEL-5 melanoma was determined as 30.2 µM; with COLO 205 colon it was 32.6 µM; in the test with SF-539 CNS it was 37.1 µM; in the test with NCI-H226 lung it was 37.8 µM; with M14 melanoma it was 35.5 µM; with K-562 leukemia, 68 µM. In addition, the TGI with SK-OV-3 ovarian came out at 33 µM; in the test on HT29 colon it was 41.3 µM; in the test on HOP-62 NSCLC, 33.9 µM.

As for `COc1ccc(C(=O)/C(=N/Nc2ccccc2)c2ccc(OC)cc2)cc1`, the TGI in the test on SK-MEL-5 melanoma, with COLO 205 colon, in the test on SF-539 CNS, in the test on NCI-H226 lung, in the test with K-562 leukemia and with SK-OV-3 ovarian was more than 100 µM each time. For the same molecule, the TGI in the test with HT29 colon was more than 100 µM.

Turning to `Cc1cc(C)nc(NS(=O)(=O)c2ccc(NC(=O)c3cccc4c(Nc5ccc(S(=O)(=O)Nc6nc(C)cc(C)n6)cc5)c5ccccc5nc34)cc2)n1`, the TGI amounted to 36.6 µM in the test on SK-MEL-5 melanoma; 45.4 µM in the test with COLO 205 colon; 32.6 µM in the test on SF-539 CNS; 54.9 µM with M14 melanoma; 61.2 µM in the test on K-562 leukemia; 57.2 µM in the test with SK-OV-3 ovarian. The TGI in the test with HT29 colon was determined as 43.9 µM; in the test with HOP-62 NSCLC, 66 µM.

For the molecule `CN(C)c1ccc(/C=C/C(=O)c2ccccc2)cc1Br`, the TGI with SK-MEL-5 melanoma was 39.1 µM; in the test on COLO 205 colon, 34.5 µM; in the test with M14 melanoma, 27.3 µM; with K-562 leukemia it was 75.7 µM; in the test on SK-OV-3 ovarian, more than 100 µM; in the test with HT29 colon, 51 µM. The molecule also registered a TGI with HOP-62 NSCLC of more than 100 µM.

On to `COc1ccc(-c2cn(-c3ccc(Cl)cc3)c(=S)[nH]2)cc1OC`, for which the GI50 with SK-MEL-5 melanoma is 2.92 µM; with COLO 205 colon, 5.61 µM; in the test with SF-539 CNS it was 29.9 µM; with NCI-H226 lung it was 3.62 µM; with MDA-MB-231 breast it was 1.5 µM; in the test on K-562 leukemia it was more than 100 µM. Moreover, the GI50 was 48.9 µM in the test with SK-OV-3 ovarian, 3.89 µM in the test on HT29 colon and 21.5 µM in the test on HOP-62 NSCLC. The TGI with SK-MEL-5 melanoma was more than 100 µM; in the test on COLO 205 colon it was more than 100 µM; in the test with SF-539 CNS, more than 100 µM; in the test with NCI-H226 lung, more than 100 µM; with MDA-MB-231 breast, 87 µM; with K-562 leukemia, more than 100 µM. Moreover, the TGI in the test with SK-OV-3 ovarian, in the test on HT29 colon and in the test with HOP-62 NSCLC was more than 100 µM in each case.

`C[C@]12CCC3[C@@H](C[C@H]4OC(=O)[C@@]35CCC(=O)C=C45)C1CCC2=O` (some centres undefined): the TGI in the test with SK-MEL-5 melanoma, with COLO 205 colon, in the test with SF-539 CNS, in the test on NCI-H226 lung, in the test with M14 melanoma and in the test on K-562 leukemia was more than 100 µM throughout. Also, the TGI with SK-OV-3 ovarian and with HT29 colon was more than 100 µM each time.

`CCOC(=O)NC(=O)c1cn(CCCCCOC(=O)NCCCCCCNC(=O)OCCCCCn2cc(C(=O)NC(=O)OCC)c(=O)[nH]c2=O)c(=O)[nH]c1=O`: the TGI in the test with SK-MEL-5 melanoma, with COLO 205 colon, in the test on SF-539 CNS, in the test with NCI-H226 lung, in the test with M14 melanoma and in the test on K-562 leukemia was more than 100 µM each time. Moreover, the TGI in the test with SK-OV-3 ovarian, with HT29 colon and with HOP-62 NSCLC was more than 100 µM each time.

`COC1OCC(OS(=O)(=O)c2ccc(C)cc2)C(OC(=O)c2ccccc2)C1OC(=O)c1ccccc1` (centres undefined): the GI50 is 4.32 µM with SK-MEL-5 melanoma; 4.14 µM with COLO 205 colon; 5 µM in the test on SF-539 CNS; more than 100 µM in the test with NCI-H226 lung; 7.02 µM in the test on MDA-MB-231 breast; 3.16 µM with K-562 leukemia. The GI50 was 21.7 µM in the test with SK-OV-3 ovarian, 3.96 µM in the test with HT29 colon and 3.18 µM with HOP-62 NSCLC. Besides, the TGI with SK-MEL-5 melanoma, in the test with COLO 205 colon, in the test with SF-539 CNS, with NCI-H226 lung, with MDA-MB-231 breast and with K-562 leukemia was more than 100 µM throughout. For the same molecule, the TGI with SK-OV-3 ovarian, in the test on HT29 colon and in the test on HOP-62 NSCLC was more than 100 µM throughout.

Take `CN(C)c1ccccc1CC(c1c[nH]c2ccccc12)c1c[nH]c2ccccc12`: the TGI with SK-MEL-5 melanoma is 28.8 µM; in the test with COLO 205 colon it was 11.3 µM; in the test on SF-539 CNS, 31 µM; in the test on NCI-H226 lung, 25.7 µM; with M14 melanoma, 24 µM; in the test with K-562 leukemia, 32.9 µM. The TGI was determined as 33.7 µM with SK-OV-3 ovarian, 17.8 µM with HT29 colon and 23.3 µM with HOP-62 NSCLC.

Turning to `N#Cc1ccc(/C=N\N2C(=O)c3ccccc3C2=O)cc1`, the TGI in the test with SK-MEL-5 melanoma, in the test on SF-539 CNS, in the test with NCI-H226 lung, with M14 melanoma, in the test on K-562 leukemia and in the test with HT29 colon was more than 100 µM in each case. In the test on HOP-62 NSCLC, this molecule displayed a TGI of more than 100 µM.

Consider `O=C1C(c2ccc([N+](=O)[O-])cc2)=[N+]([O-])c2ccccc21`, for which the TGI in the test with SK-MEL-5 melanoma is 31.5 µM; in the test with COLO 205 colon, 30.1 µM; with SF-539 CNS, more than 100 µM; in the test on NCI-H226 lung, more than 100 µM; with M14 melanoma, more than 100 µM; in the test with K-562 leukemia, more than 100 µM. For the same molecule, the TGI in the test on SK-OV-3 ovarian is more than 100 µM; with HT29 colon it was more than 100 µM; in the test on HOP-62 NSCLC, 82.3 µM.

Consider `O=c1c2cc(Br)ccc2[nH]c(=S)n1-c1ccc(Br)cc1`, for which the TGI in the test with COLO 205 colon, with SF-539 CNS, in the test on NCI-H226 lung, in the test with K-562 leukemia, in the test on HT29 colon and with HOP-62 NSCLC was more than 100 µM in each case.

Turning to `O=C(CCCCCCC(=O)N/N=C/c1ccc(N(c2ccccc2)c2ccccc2)cc1)NO`, the GI50 is 1.76 µM in the test with SK-MEL-5 melanoma; 2.02 µM with COLO 205 colon; 2.17 µM in the test with SF-539 CNS; 3.37 µM with MDA-MB-231 breast; 1.6 µM with SK-OV-3 ovarian; 2.26 µM in the test with HT29 colon. Besides, the GI50 in the test on HOP-62 NSCLC was 2.21 µM. Moreover, the TGI in the test on SK-MEL-5 melanoma was determined as 3.63 µM; in the test with COLO 205 colon, 4.63 µM; in the test with SF-539 CNS, 4.95 µM; in the test with MDA-MB-231 breast, 12.2 µM; with SK-OV-3 ovarian, 5.29 µM; in the test on HT29 colon, 6.76 µM. In addition, the TGI in the test with HOP-62 NSCLC was determined as 10.2 µM.

For the origin of these results see PubChem BioAssay (NCI).
